Experimental data published in patent US7893286B2, “Method for the synthesis of phospholipid ethers” (Cellectar, Inc., priority 2007, dated 2011).

System: A549 human non-small cell lung cancer xenografts
Assay: Antitumor effect of single-dose ^125I-NM404 on tumor volume in SCID mice bearing A549 xenografts
Assay type: in vivo
Conditions: for effect on tumor volume compared to control animals: up to 10 weeks post-injection
Description: FIG. 2, illustrates antitumor effect of single-dose treatment with ^125I-125-NM404 at doses of 50 (⊚), 150 (□), 250 (⋄) and 500 (∘) μCi in SCID mice bearing A549 human non-small cell lung cancer xenografts. In this figure, control animals show rapidly growing tumors over the 10-week assessment period.
FIG. 2 summarizes investigations into the efficacy of ^125I-NM404 treatment. These investigations provided assessments of tumor volume were made until 10 weeks post-injection or until no animal in the control group is alive, whatever came first. Summarizing the results, control animals show rapidly growing tumors over the 10-week assessment period. […] Tumor volumes are stable and same tumors appear “collapsed” (the tumor surface has caved in). Additionally, FIG. 3 illustrates that hair above the tumors fell off confirming substantial accumulation of radioactivity in these tumors.

C[N+](C)(C)CCOP(=O)([O-])OCCCCCCCCCCCCCCCCCCc1ccc([125I])cc1 [^125I-NM404]
effect on the tumor (appearance) (250 μCi, 4 weeks following injection): causes central necrosis
dose dependence of effect on tumor volume (doses 50-500 μCi): dose-linear effect
tumor therapy efficacy (following single injection and fractionated dosing): effective tumor therapy treatment
effect on tumor volume compared to control animals (single dose 50 μCi): did not show any difference
effect on tumor volume compared to control animals (single dose 250 μCi): substantial and prolonged treatment effect
effect on tumor volume compared to control animals (single dose 500 μCi): substantial and prolonged treatment effect
